According to US8541442B2, “Indole derivatives as anticancer agents” (Janssen Pharmaceutica N.V., priority 2009, dated 2013):

What follows are compounds tested on human prostate cancer cell line DU145 (assay: Alamar Blue cell proliferation assay, DU145). Settings: DU145 cells.
Assay type: cell-based
Experimental: For experiments in 384 wells plates the cells were seeded at a density of 5×10^3 cells/ml in Falcon 384-well culture plates (Life Technologies, Merelbeke, Belgium), black with clear bottom, in 45 μl culture medium. Cells were allowed to adhere to plastic for 24 hr. The tested compound was pre-diluted (1/50 in culture medium) and 5 μl pre-diluted compound was added to the wells. Following 4-day incubation, 10 μl of the Alamar Blue solution was added to each well and the cells were further incubated for 5 hrs (A2780) at 37° C. The fluorescence intensity was measured for each well with a Fluorescence plate reader (Fluorskan, Labsystems, 540 nm excitation and 590 nm emission)
The antiproliferative activity was calculated as percentage of remaining viable cells in treated versus control (untreated cells) conditions. Within an experiment, the result for each experimental condition is the mean of 3 replicate wells. When appropriate, the experiments were repeated to establish full concentration-response curves. When appropriate, IC50-values (concentration of the drug, needed to reduce cell growth to 50% of the control) were computed using probit analysis for graded data (Finney, D. J., Probit Analyses, 2nd Ed. Chapter 10, Graded Responses, Cambridge University Press, Cambridge 1962). Herein the effects of test compounds are expressed as pIC50 (the negative log value of the IC50-value (M)) (see Table 5A).
Compounds were also tested according to the above protocol but using other cell lines: colorectal cancer cell line HCT116, non-small cell lung cancer cell line H1299, human prostate cancer cell line DU145.

Row | Structure (SMILES) | DU145 cell proliferation inhibition pIC50
1 | Cc1cc(Nc2ccnc(CO)c2)ccc1NCCc1c[nH]c2c(C(C)(C)O)cccc12 [Compound 19] | 5.74
2 | COc1cc(Nc2ccnc3c2CCC3O)ccc1NCCc1c[nH]c2c(C(C)(C)O)cccc12 (stereo not drawn) [Compound 11] | 6.21
3 | CC(C)(O)c1cccc2c(CCNc3ccc(Nc4ccnc5c4CCC5(C)O)cc3)c[nH]c12 (single isomer, unassigned) [Compound 31] | 6.04
4 | CC(C)(O)c1cccc2c(CCNc3ccc(Nc4ccnc5c4CCC5(C)O)cc3)c[nH]c12 (single isomer, unassigned) [Compound 30] | 6.14
5 | COC1CCc2c(Nc3ccc(NCCc4c[nH]c5c(C(C)(C)O)cccc45)c(C)c3)ccnc21 (single isomer, unassigned) [Compound 29] | 6.58
6 | Cc1cc(Nc2ccnc3c2CCC3(C)O)ccc1NCCc1c[nH]c2c(C(C)O)cccc12 (stereo not drawn) [Compound 10] | 5.65
7 | Cc1cc(Nc2ccncc2)ccc1NCCc1c[nH]c2c(C(O)C(C)C)cccc12 (stereo not drawn) [Compound 22] | 5.07
8 | Cc1cc(Nc2ccnc3c2CCC3(C)O)ccc1NCCc1c[nH]c2c(C(C)(C)O)cccc12 (single isomer, unassigned) [Compound 26] | 6.18
9 | COC1CCc2c(Nc3ccc(NCCc4c[nH]c5c(C(C)O)cccc45)c(C)c3)ccnc21 (stereo not drawn) [Compound 16] | 5.98
10 | Cc1cc(Nc2ccnc3c2CCC3O)ccc1NCCc1c[nH]c2c(C(C)(C)O)cccc12 (stereo not drawn) [Compound 18] | 6.40
11 | Cc1cc(Nc2ccnc3c2CCC3O)ccc1NCCc1c[nH]c2c(C(C)(C)O)cccc12 (stereo not drawn) [Compound 20] | 5.73
12 | Cc1cc(Nc2ccnc3c2CCC3O)ccc1NCCc1c[nH]c2c(CCO)cccc12 (single isomer, unassigned) [Compound 23] | 5
13 | COC1CCc2c(Nc3ccc(NCCc4c[nH]c5c(C(C)(C)O)cccc45)c(C)c3)ccnc21 (single isomer, unassigned) [Compound 28] | 6.52

Same assay, conditions: Homo sapiens, DU-145, DU145 cells; read-out: DU145 cell proliferation inhibition pIC50 (converted)

Row | Structure (SMILES) | IC50 [nM]
14 | Cc1cc(Nc2ccnc3c2CCC3O)ccc1NCCc1c[nH]c2c(CCC(C)O)cccc12 (stereo not drawn) [Compound 9] | 5500
15 | Cc1cc(Nc2ccnc3c2CCC3(C)O)ccc1NCCc1c[nH]c2c(C(C)(C)O)cccc12 (single isomer, unassigned) [Compound 27] | 1000
16 | Cc1cc(Nc2ccnc3c2CCC3=O)ccc1NCCc1c[nH]c2c(C(C)O)cccc12 (stereo not drawn) [Compound 4] | 5130
17 | Cc1cc(Nc2ccnc(CO)c2)ccc1NCCc1c[nH]c2c(C(C)O)cccc12 (stereo not drawn) [Compound 5] | 2750
18 | COC1CCc2c(Nc3ccc(NCCc4c[nH]c5c(C(C)(C)O)cccc45)cc3)ccnc21 (single isomer, unassigned) [Compound 24] | 295
19 | C=C(C)c1cccc2c(CCNc3ccc(Nc4ccnc5c4CCC5OC)cc3)c[nH]c12 (stereo not drawn) [Compound 7] | 251
20 | Cc1cc(Nc2ccnc3c2CCC3(C)O)ccc1NCCc1c[nH]c2c(C(C)(C)O)cccc12 (stereo not drawn) [Compound 1] | 1200
21 | Cc1cc(Nc2ccncc2)ccc1NCCc1c[nH]c2c(C(C)(C)O)cccc12 [Compound 2] | 692

Each compound was assayed on Male NMRI mice (assay: Ro-4-1284 antagonism in mice). Settings: 40 mg/kg.
Assay type: in vivo
Experimental: The test is a modification of a procedure described by Colpaert et al. (1975).^3 Male NMRI mice (22±3 g) were housed in macrolon observation cages (L×W×H: 11×12×17 cm; n=3 per cage). At the start of the experiments immediately before test compound administration, the initial body temperature of the mice was measured with a precision of 0.1° C. by inserting the thermo-sensitive probe (1.0 mm diameter) of an electric thermometer (Comark) to a constant depth of 3 cm into the esophagus until a stable reading was obtained. The right eye pupil diameter was measured with a graduated microscope and expressed in 1/24 mm units. Fifteen min after test compound administration, the mice were challenged with Ro-4-1284 (10 mg/kg, s.c.). Ro-4-1284 is a reserpine-like vesicular monoamine transport (VMAT-2) inhibitor, which rapidly depletes secretory vesicles.^3,4 Fifteen, 30 and 60 min after challenge, the mice were scored for palpebral opening (0, 1, 2, 3, 4, 5) and locomotor activity (−1, 0, 1, 2, 3). At the 60-min interval, immediately after the scoring of overt behavior, the right eye pupil diameter and the esophageal temperature were measured again. Abnormal phenomena such as intensive sniffing, chewing, rearing, hyperemia, piloerection, salivation, tremors, convulsions and death were noted (the latter phenomena were also noted when occurring before Ro-4-1284 administration). Criteria for drug-induced effects: reversal of ptosis: palpebral opening score >1 at 15, 30 or 60 min (2.7, 0.5 and 0% false positive controls, respectively; n>350); induction of prostration: score −1 for locomotion at 15, 30 or 60 min (never observed in controls); reversal of hypomotility: score >0 for locomotion at 15, 30 and 60 min (2.2, 0.8 and 0% false positive controls, respectively); reversal of miosis: pupil diameter >5 units at 60 min (0.8% false positives); potentiation of hypothermia: temperature decrease (over the 1-h time interval)>9.0° C. (1.4% false positives); reversal of hypothermia: temperature decrease <3.0° C. (1.8% false positives).
According to the standard procedure, R0-4-1284 is injected 15 min following subcutaneous or oral administration and observations start 15 min later. Doses are initially given to 3 animals. When at least 2 out of the 3 animals show activity for at least one of the observations, the compound is considered active.

Row | Structure (SMILES) | activity on reversal of hypomotility | activity on reversal of miosis | activity on reversal of ptosis
22 | Cc1cc(Nc2ccnc3c2CCC3=O)ccc1NCCc1c[nH]c2c(C(C)O)cccc12 (stereo not drawn) [Compound 4] | did not show activity | did not show activity | did not show activity

Same assay, conditions: 80 mg/kg oral administration, 3 animals

Row | Structure (SMILES) | activity on reversal of hypomotility | activity on reversal of miosis | activity on reversal of ptosis
23 | COC1CCc2c(Nc3ccc(NCCc4c[nH]c5c(C(C)(C)O)cccc45)cc3)ccnc21 (single isomer, unassigned) [Compound 25] | did not show activity | did not show activity | did not show activity
24 | CC(C)(O)c1cccc2c(CCNc3ccc(Nc4ccnc5c4CCC5(C)O)cc3)c[nH]c12 (single isomer, unassigned) [Compound 31] | did not show activity | did not show activity | did not show activity
25 | CC(C)(O)c1cccc2c(CCNc3ccc(Nc4ccnc5c4CCC5(C)O)cc3)c[nH]c12 (single isomer, unassigned) [Compound 30] | did not show activity | did not show activity | did not show activity
26 | COC1CCc2c(Nc3ccc(NCCc4c[nH]c5c(C(C)(C)O)cccc45)c(C)c3)ccnc21 (single isomer, unassigned) [Compound 29] | did not show activity | did not show activity | did not show activity
27 | Cc1cc(Nc2ccnc3c2CCC3(C)O)ccc1NCCc1c[nH]c2c(C(C)(C)O)cccc12 (single isomer, unassigned) [Compound 26] | did not show activity | did not show activity | did not show activity
28 | Cc1cc(Nc2ccnc3c2CCC3(C)O)ccc1NCCc1c[nH]c2c(C(C)(C)O)cccc12 (single isomer, unassigned) [Compound 27] | did not show activity | did not show activity | did not show activity
29 | COC1CCc2c(Nc3ccc(NCCc4c[nH]c5c(C(C)(C)O)cccc45)cc3)ccnc21 (single isomer, unassigned) [Compound 24] | did not show activity | did not show activity | did not show activity
30 | Cc1cc(Nc2ccnc3c2CCC3O)ccc1NCCc1c[nH]c2c(C(C)(C)O)cccc12 (stereo not drawn) [Compound 18] | did not show activity | did not show activity | did not show activity
31 | C=C(C)c1cccc2c(CCNc3ccc(Nc4ccnc5c4CCC5OC)cc3)c[nH]c12 (stereo not drawn) [Compound 7] | did not show activity | did not show activity | did not show activity
32 | Cc1cc(Nc2ccnc3c2CCC3O)ccc1NCCc1c[nH]c2c(C(C)(C)O)cccc12 (stereo not drawn) [Compound 20] | did not show activity | did not show activity | did not show activity
33 | Cc1cc(Nc2ccnc3c2CCC3(C)O)ccc1NCCc1c[nH]c2c(C(C)(C)O)cccc12 (stereo not drawn) [Compound 1] | did not show activity | did not show activity | did not show activity
34 | COC1CCc2c(Nc3ccc(NCCc4c[nH]c5c(C(C)(C)O)cccc45)c(C)c3)ccnc21 (single isomer, unassigned) [Compound 28] | did not show activity | did not show activity | did not show activity
